Measurements reported in patent US8846739B2, “TGR5 agonists” (Exelixis Patent Company LLC, priority 2009, dated 2014).

Experiments:
human TGR5 (h-TGR5) = target: T1, human TGR5 (h-TGR5) (Homo sapiens, UniProt Q8TDU6); experiment: TGR5/CRE-Luciferase Assay; type: cell-based; settings: HEK 293 hTGR5/CRE-Luc cells, 6 hours incubation, read-out: CRE-Luc Agonist (EC50)
T1 sequence (Q8TDU6 1-330): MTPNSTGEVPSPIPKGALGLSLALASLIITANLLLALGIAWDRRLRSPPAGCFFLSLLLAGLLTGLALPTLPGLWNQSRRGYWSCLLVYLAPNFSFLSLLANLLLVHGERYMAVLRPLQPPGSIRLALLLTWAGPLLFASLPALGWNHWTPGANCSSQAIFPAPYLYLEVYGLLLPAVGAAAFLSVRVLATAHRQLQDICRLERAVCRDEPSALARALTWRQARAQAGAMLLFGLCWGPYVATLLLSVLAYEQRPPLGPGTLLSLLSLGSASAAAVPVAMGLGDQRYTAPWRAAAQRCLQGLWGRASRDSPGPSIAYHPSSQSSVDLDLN
In short: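 HEK 293 CRE-Luciferase cells stably expressing the receptor, plated in DMEM 18-20 h before assay, then exposed to serially diluted compounds (DMEM with 5% DMSO) for 6 h. Luciferase read-out after lysis; EC50 from dose-response.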

h-TGR5 = target: T2, h-TGR5 (Homo sapiens, UniProt Q8TDU6); experiment: TGR5 cAMP Assay using Cisbio cAMP Dynamic 2 htrf assay kit; type: cell-based; settings: hTGR5CRE-luc HEK 293 cells
T2 sequence (Q8TDU6 1-330): T1 sequence (Q8TDU6 1-330)

EC50 (human TGR5 (h-TGR5)) | EC50 (h-TGR5) | Structure (SMILES)
< 100 nM | < 100 nM | COc1cc(C(C)(C)c2cnc(SCc3c(F)cc(S(=O)(=O)N(CCC[N+](C)(C)C)[C@H](C)C(=O)O)cc3Cl)n2-c2ccc(F)cc2)cc(F)c1F [Compound 14c, (R)-3-(N-(1-carboxyethyl)-3-chloro-4-((5-(2-(3,4-difluoro-5-methoxyphenyl)propan-2-yl)-1-(4-fluorophenyl)-1H-imidazol-2-ylthio)methyl)-5-fluorophenylsulfonamido)-N,N,N-trimethylpropan-1-aminium 2,2,2-trifluoroacetate]
< 100 nM | < 100 nM | COc1cc(C(C)(C)c2cnc(SCc3c(F)cc(S(=O)(=O)N(C)[C@H](CCC[N+](C)(C)C)C(=O)O)cc3Cl)n2-c2ccc(F)cc2)ccc1Cl [Compound 17d, (R)-4-carboxy-4-(3-chloro-4-((5-(2-(4-chloro-3-methoxyphenyl)propan-2-yl)-1-(4-fluorophenyl)-1H-imidazol-2-ylthio)methyl)-5-fluoro-N-methylphenylsulfonamido)-N,N,N-trimethylbutan-1-aminium 2,2,2-trifluoroacetate]
< 100 nM | < 100 nM | CN([C@@H](CCC[N+](C)(C)C)C(=O)O)S(=O)(=O)c1cc(F)c(CSc2ncc(C(C)(C)c3ccc(F)c(Cl)c3)n2-c2ccc(F)cc2)c(F)c1 [Compound 14h, (S)-4-carboxy-4-(4-((5-(2-(3-chloro-4-fluorophenyl)propan-2-yl)-1-(4-fluorophenyl)-1H-imidazol-2-ylthio)methyl)-3,5-difluoro-N-methylphenylsulfonamido)-N,N,N-trimethylbutan-1-aminium chloride]
< 100 nM | < 100 nM | COc1cc(C(C)(C)c2cnc(SCc3c(F)cc(S(=O)(=O)N(CCC[N+](C)(C)C)CC(=O)O)cc3Cl)n2-c2ccc(F)cc2)ccc1F [Compound 14n, 3-[(carboxymethyl){[3-chloro-5-fluoro-4-({[5-{1-[4-fluoro-3-(methyloxy)phenyl]-1-methylethyl}-1-(4-fluorophenyl)-1H-imidazol-2-yl]thio}methyl)phenyl]sulfonyl}amino]-N,N,N-trimethylpropan-1-aminium]
< 100 nM | < 100 nM | COc1cc(C(C)(C)c2cnc(SCc3c(F)cc(S(=O)(=O)N(CCC[N+](C)(C)C)C(C)C)cc3Cl)n2-c2ccc(F)cc2)ccc1F [Compound 14l, 3-[{[3-chloro-5-fluoro-4-({[5-{1-[4-fluoro-3-(methyloxy)phenyl]-1-methylethyl}-1-(4-fluorophenyl)-1H-imidazol-2-yl]thio}methyl)phenyl]sulfonyl} (1-methylethyl)amino]-N,N,N-trimethylpropan-1-aminium]
< 100 nM | < 100 nM | COc1cc(C(C)(C)c2cnc(SCc3c(F)cc(S(=O)(=O)N(CCC[N+](C)(C)C)[C@H](C(=O)O)C(C)C)cc3F)n2-c2ccc(F)cc2)ccc1Cl [Compound 14p, 3-([(1S)-1-carboxy-2-methylpropyl]{[4-({[5-{1-[4-chloro-3-(methyloxy)phenyl]-1-methylethyl}-1-(4-fluorophenyl)-1H-imidazol-2-yl]thio}methyl)-3,5-difluorophenyl]sulfonyl}amino)-N,N,N-trimethylpropan-1-aminium]
< 100 nM | < 100 nM | CC[N+](CC)(CC)CC#Cc1cc(F)c(CSc2ncc(C(C)(C)c3ccc(Cl)c(OC)c3)n2-c2ccc(F)cc2)c(F)c1 [Compound 18a, 3-(4-((-5-(2-(4-chloro-3-methoxyphenyl)propan-2-yl)-1-(4-fluorophenyl)-1H-imidazol-2-ylthio)methyl)-3,5-difluorophenyl)-N,N,N-triethylprop-2-yn-1-aminium chloride]
< 100 nM | < 100 nM | CC[C@@H](C(=O)O)N(CCC[N+](C)(C)C)S(=O)(=O)c1cc(F)c(CSc2ncc(C(C)(C)c3ccc(Cl)c(OC)c3)n2-c2ccc(F)cc2)c(Cl)c1 [Compound 14w, 3-([(1S)-1-carboxypropyl]{[3-chloro-4-({[5-{1-[4-chloro-3-(methyloxy)phenyl]-1-methylethyl}-1-(4-fluorophenyl)-1H-imidazol-2-yl]thio}methyl)-5-fluorophenyl]sulfonyl}amino)-N,N,N-trimethylpropan-1-aminium]
< 100 nM | < 100 nM | COc1cc(C(C)(C)c2cnc(SCc3c(F)cc(S(=O)(=O)N(CCC[N+](C)(C)C)CCC(=O)O)cc3Cl)n2-c2ccc(F)cc2)ccc1Cl [Compound 14u, 3-[(2-carboxyethyl){[3-chloro-4-({[5-{1-[4-chloro-3-(methyloxy)phenyl]-1-methylethyl}-1-(4-fluorophenyl)-1H-imidazol-2-yl]thio}methyl)-5-fluorophenyl)sulfonyl}amino]-N,N,N-trimethylpropan-1-aminium]

Further lines, the compound ahead of its results:

Structure (SMILES) | EC50 (human TGR5 (h-TGR5)) | EC50 (h-TGR5)
COc1cc(C(C)(C)c2cnc(SCc3c(F)cc(CCC[N+]45CCN(CC4)CC5)cc3F)n2-c2ccc(F)cc2)ccc1Cl [Compound 19, 1-(3-(4-((5-(2-(4-chloro-3-methoxyphenyl)propan-2-yl)-1-(4-fluorophenyl)-1H-imidazol-2-ylthio)methyl)-3,5-difluorophenyl)propyl)-4-aza-1-azoniabicyclo[2.2.2.2]octane 2,2,2-trifluoroacetate] | < 100 nM | < 100 nM
COc1cc(C(C)(C)c2cnc(SCc3c(F)cc(S(=O)(=O)N(C)[C@@H](CCC[N+](C)(C)C)C(=O)O)cc3F)n2-c2ccc(F)cc2)ccc1Cl [Compound 16, (S)-4-carboxy-4-(4-((5-(2-(4-chloro-3-methoxyphenyl)propan-2-yl)-1-(4-fluorophenyl)-1H-imidazol-2-ylthio)methyl)-3,5-difluoro-N-methylphenylsulfonamido)-N,N,N-trimethylbutan-1-aminium 2,2,2-trifluoroacetate] | < 100 nM | < 100 nM
COc1cc(C(C)(C)c2cnc(SCc3ccc(Cl)c(S(=O)(=O)NCCC[N+](C)(C)C)c3)n2-c2ccc(F)cc2)ccc1Cl [Example 6l, 3-({[2-chloro-5-({[5-{1-[4-chloro-3-(methyloxy)phenyl]-1-methylethyl}-1-(4-fluorophenyl)-1H-imidazol-2-yl]thio}methyl)phenyl]sulfonyl}amino)-N,N,N-trimethylpropan-1-aminium] | < 100 nM | < 100 nM
COc1cc(C(C)(C)c2cnc(SCc3c(F)cc(S(=O)(=O)N(CCC[N+](C)(C)C)CC(=O)O)cc3F)n2-c2ccc(F)cc2)ccc1Cl [Example 12] | < 100 nM | < 100 nM
COc1cc(C(C)(C)c2nnc(SCc3c(F)cc(S(=O)(=O)NCCC[N+](C)(C)C)cc3F)n2-c2ccc(F)cc2)ccc1Cl [Example 6d, 3-({[4-({[5-{1-[4-chloro-3-(methyloxy)phenyl]-1-methylethyl}-4-(4-fluorophenyl)-4H-1,2,4-triazol-3-yl]thio}methyl)-3,5-difluorophenyl]sulfonyl}amino)-N,N,N-trimethylpropan-1-aminium] | < 100 nM | < 100 nM
COc1cc(C(C)(C)c2cnc(SCc3c(F)cc(S(=O)(=O)N4CC[N+](C)(C)CC4)cc3Cl)n2-c2ccc(F)cc2)ccc1Cl [Compound 11k, 4-{[3-chloro-4-({[5-{1-[4-chloro-3-(methyloxy)phenyl]-1-methylethyl}-1-(4-fluorophenyl)-1H-imidazol-2-yl]thio}methyl)-5-fluorophenyl]sulfonyl}-1,1-dimethylpiperazin-1-ium] | < 100 nM | < 100 nM
COc1cc(-n2c(C(C)(C)c3ccc(Cl)c(Cl)c3)cnc2SCc2c(F)cc(C(=O)NCC[N+](C)(C)C)cc2Cl)ccc1F [Example 2n, 2-[({3-chloro-4-[({5-[1-(3,4-dichlorophenyl)-1-methylethyl]-1-[4-fluoro-3-(methyloxy)phenyl]-1H-imidazol-2-yl}thio)methyl]-5-fluorophenyl}carbonyl)amino]-N,N,N-trimethylethanaminium] | < 100 nM | < 100 nM
COc1cc(C(C)(C)c2cnc(SCc3c(F)cc(C(=O)NC4CC[N+](C)(CC(=O)O)CC4)cc3Cl)n2-c2ccc(F)cc2)ccc1Cl (centres unmarked) [Example 3, 1-(Carboxymethyl)-4-(3-chloro-4-((5-(2-(4-chloro-3-methoxyphenyl)propan-2-yl)-1-(4-fluorophenyl)-1H-imidazol-2-ylthio)methyl)-5-fluorobenzamido)-1-methyl-piperidinium 2,2,2-trifluoroacetate] | < 100 nM | < 100 nM
COc1cc(C(C)(C)c2cnc(SCc3c(F)cc(S(=O)(=O)N(C)CCC[N+](C)(C)C)cc3Cl)n2-c2ccc(F)cc2)ccc1Cl [Compound 12c, 3-(3-chloro-4-((5-(2-(4-chloro-3-methoxyphenyl)propan-2-yl)-1-(4-fluorophenyl)-1H-imidazol-2-ylthio)methyl)-5-fluoro-N-methylphenylsulfonamido)-N,N,N-trimethylpropan-1-aminium 2,2,2-trifluoroacetate] | < 100 nM | < 100 nM
COc1cc(-n2c(C(C)(C)c3ccc4onc(N)c4c3)cnc2SCc2c(F)cc(C(=O)NCC[N+](C)(C)C)cc2Cl)ccc1F [Example 1b, 2-[({4-[({5-[1-(3-amino-1,2-benzisoxazol-5-yl)-1-methylethyl]-1-[4-fluoro-3-(methyloxy)phenyl]-1H-imidazol-2-yl}thio)methyl]-3-chloro-5-fluorophenyl}carbonyl)amino]-N,N,N-trimethylethanaminium] | < 100 nM | < 100 nM
